Measured values: patent US5622962A, “5α-reductase inhibitors” (priority 1995, dated 1997)
Where “and” joins values, the source holds several entries; their conditions need not be identical. Equal entries are not always repeated.

Legend:
[1] = target: T1, Type I 5α-Reductase from Human Scalp (Homo sapiens, UniProt P18405); test: Human Type I 5α-reductase assay (conversion of [3H]-testosterone to 5α-reduced metabolites); assay type: biochemical; settings: 50 nM [3H]-testosterone, pH 7.5, 25°, 180 min, compared to control reaction mixtures; for inhibition at 0.3 µM: pH 7.5, 0.3 μM, read-out: percent inhibition of Type I AR
T1 construct: Scalp punch biopsies from graft recipient sites were obtained from human hair transplant procedures; from tissue; host or cells: human scalp punch biopsies (hair transplant graft recipient sites), homogenate, 100,000×g pellet
T1 sequence (P18405 1-259): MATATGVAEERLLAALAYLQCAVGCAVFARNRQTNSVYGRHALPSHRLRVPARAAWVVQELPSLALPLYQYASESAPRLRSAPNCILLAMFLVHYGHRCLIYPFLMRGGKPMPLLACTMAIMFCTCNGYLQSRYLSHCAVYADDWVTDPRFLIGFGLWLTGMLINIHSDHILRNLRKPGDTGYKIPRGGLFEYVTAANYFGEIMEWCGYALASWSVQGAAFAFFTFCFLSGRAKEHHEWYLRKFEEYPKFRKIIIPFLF

[2] = target: T2, Type II 5α-Reductase from Human Prostate (Homo sapiens, UniProt P31213); test: Human Type II 5α-reductase assay (conversion of [3H]-testosterone to 5α-reduced metabolites); assay type: biochemical; settings: pH 5.5, 0.3 μM; sodium acetate pH 5.5, 25°, 30 min; compared to control reaction mixtures; read-out: percent inhibition of Type II AR
T2 construct: The same procedure as above was used for preparations using tissue from prostate surgery; from tissue; host or cells: human prostate tissue from surgery, homogenate, 100,000×g pellet
T2 sequence (P31213 1-254): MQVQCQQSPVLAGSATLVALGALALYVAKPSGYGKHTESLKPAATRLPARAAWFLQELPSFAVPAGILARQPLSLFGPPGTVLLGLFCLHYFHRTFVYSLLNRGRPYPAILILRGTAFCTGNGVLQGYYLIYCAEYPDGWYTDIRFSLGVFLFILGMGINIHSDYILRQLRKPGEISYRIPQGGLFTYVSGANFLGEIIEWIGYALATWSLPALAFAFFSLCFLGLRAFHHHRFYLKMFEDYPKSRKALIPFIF

inhibition at 0.3 µM [1] [%]	inhibition at 0.3 µM [2] [%]	percent inhibition of Type I AR ([1]; 0.3 μM)	Compound
91	41	–	CN1C(=O)CC[C@]2(C)c3ccc(-c4nc5c(Cl)cccc5s4)cc3CC[C@@H]12 [Example 262, (+)-(4aR)-(10bR)-4-methyl-8-(2-[4-chloro]benzothiazolyl)-10b-methyl-1,2,3,4,4a,5,6,10b-octahydrobenzo[f]quinolin-3-one]
47	32	–	CCCN(CCC)[C@@H]1Cc2cc(-c3ccc4c(c3)CC[C@H]3N(C)C(=O)CC[C@]43C)cc3c2[C@@H](C1)CN3C(=O)c1ccccc1 [Example 225, (+)-(4aR)-(10bR)-4-methyl-8-(2aR,4S-1-benzoyl-4-dipropylamino-2,2a,3,4-tetrahydrobenz[cd]-1H-indol-7-yl)-10b-methyl-1,2,3,4,4a,5,6,10b-octahydrobenzo[f]quinolin-3-one]
93	33	–	CN1C(=O)CC[C@]2(C)c3ccc(-c4ccc([N+](=O)[O-])s4)cc3CC[C@@H]12 [Example 217, (+)-(4aR)-(10bR)-4-methyl-8-(5-nitro-2-thienyl)-10b-methyl-1,2,3,4,4a,5,6,10b-octahydrobenzo[f]quinolin-3-one]
77	32	–	CN1C(=O)CC[C@]2(C)c3ccc(-c4c(F)cccc4F)cc3CC[C@@H]12 [Example 228, (+)-(4aR)-(10bR)-4-methyl-8-(2,6-difluorophenyl)-10b-methyl-1,2,3,4,4a,5,6,10b-octahydrobenzo[f]quinolin-3-one]
80	21	–	CN1C(=O)CC[C@]2(C)c3ccc(-c4ccc(F)cc4F)cc3CC[C@@H]12 [Example 231, (+)-(4aR)-(10bR)-4-methyl-8-(2,4-difluorophenyl)-10b-methyl-1,2,3,4,4a,5,6,10b-octahydrobenzo[f]quinolin-3-one]
34	51	–	CN1C(=O)CC[C@]2(C)c3ccc(NC(=O)c4ccccc4)cc3CC[C@@H]12 [Example 267, (+)-(4aR)-(10bR)-4,10b-dimethyl-8-benzoylamino-1,2,3,4,4a,-5,6,10b-octahydrobenzo[f]quinolin-3-one]
95	26	–	CN1C(=O)CC[C@]2(C)c3ccc(-c4ccc(C(=O)CCCCl)cc4)cc3CC[C@@H]12 [Example 221, (+)-(4aR)-(10bR)-4-methyl-8-[4-(4-chlorobutyryl)phenyl]-10b-methyl-1,2,3,4,4a,5,6,10b-octahydrobenzo[f]quinolin-3-one]
92	33	–	CN1C(=O)CC[C@]2(C)c3ccc(CCc4ccc5ccccc5c4)cc3CC[C@@H]12 [Example 276, (+)-(4aR)-(10bR)-4-methyl-8-(2-[2-naphthyl]ethyl)-10b-methyl-1,2,3,4,4a,5,6,10b-octahydrobenzo[f]quinolin-3-one]

Continued, compound first:

Compound	inhibition at 0.3 µM [1] [%]	inhibition at 0.3 µM [2] [%]	percent inhibition of Type I AR ([1]; 0.3 μM)
Cc1ccc(-c2ccc3c(c2)CC[C@H]2N(C)C(=O)CC[C@]32C)cc1 [Example 51, (+)-(4aR)-(10bR)-4-methyl-8-(4-methylphenyl)-10b-methyl-1,2,3,4,4a,5,6,10b-octahydrobenzo[f]quinolin-3-one]	91	14	–
COc1ccc(Sc2ccc3c(c2)CC[C@H]2N(C)C(=O)CC[C@]32C)cc1 [Example 105, (+)-(4aR)-(10bR)-4,10b-dimethyl-8-(4-methoxyphenylthio)-1,2,3,4,-4a,5,6,10b-octahydrobenzo[f]quinolin-3-one]	92	33	–
CCN(CC)C(=O)c1cc2cc(-c3ccc4c(c3)CC[C@H]3N(C)C(=O)CC[C@]43C)ccc2oc1=O [Example 214, (+)-(4aR)-(10bR)-4-methyl-8-[2-oxo-3-(N,N-diethylcarboxamido)-1-2H-benzopyran-6-yl)-10b-methyl-1,2,3,4,4a,5,6,10b-octahydrobenzo[f]quinolin-3-one]	26	29	–
CN1C(=O)CC[C@]2(C)c3ccc(-c4cc(Cl)sc4Cl)cc3CC[C@@H]12 [Example 132, (+)-(4aR)-(10bR)-4-methyl-8-(3-[2,5-dichlororo]thienyl)-10b-methyl-1,2,3,4,4a,5,6,10b-octahydrobenzo[f]quinolin-3-one]	87	24	–
CN1C(=O)C=C[C@]2(C)c3ccc(-c4cccc([N+](=O)[O-])c4)cc3CC[C@@H]12 [Example 118, (+)-(4aR)-(10bR)-4-methyl-8-(3-nitrophenyl)-10b-methyl-3,4,4a,5,6,10b-hexahydrobenzo[f]quinolin-3-one]	25	43	–
COc1ccc2cc(-c3ccc4c(c3)CC[C@H]3N(C)C(=O)CC[C@]43C)ccc2c1 [Example 81, (+)-(4aR)-(10bR)-4-methyl-8-(2-[6-methoxy]naphthyl)-10b-methyl-1,2,3,4,4a,5,6,10b-octahydrobenzo[f]quinolin-3-one]	92	25	–
C[C@]12CCC(=O)N[C@@H]1CCc1cc(Sc3ccccn3)ccc12 [Example 21, (4aR)-(10bR)-8-(2-pyridinylthio)-10b-methyl-1,2,3,4,4a,5,6,10b-octahydrobenzo[f]quinolin-3-one]	27	42	–
CN1C(=O)CC[C@]2(C)c3ccc(C(=O)Oc4ccccc4)cc3CC[C@@H]12 [Example 145, (+)-(4aR)-(10bR)-4-methyl-8-phenoxycarbonyl-10b-methyl-1 2,3,4,4a,5,6,10b-octahydrobenzo[f]quinolin-3-one]	85	41	–
CNS(=O)(=O)c1ccc(-c2ccc3c(c2)CC[C@H]2N(C)C(=O)CC[C@]32C)cc1 [Example 123]	10	27	–
CN1C(=O)CC[C@]2(C)c3ccc(-c4cc(C(F)(F)F)nc5c(C(F)(F)F)cccc45)cc3CC[C@@H]12 [Example 203, (+)-(4aR)-(10bR)-4-methyl-8-[2,8-bis(trifluoromethyl)-4-quinolinyl]-10b-methyl-1,2,3,4,4a,5,6,10b-octahydrobenzo[f]-quinolin-3-one]	8	34	–
CN1C(=O)CC[C@]2(C)c3ccc(-c4cccc5ccccc45)cc3CC[C@@H]12 [Example 53, (+)-(4aR)-(10bR)-4-methyl-8-(1-naphthyl)-10b-methyl-1,2,3,4,4a,5,6,10b-octahydrobenzo[f]quinolin-3-one]	–	41	100% and 66%
CN1C(=O)CC[C@]2(C)c3ccc(Sc4nc(-c5ccccc5)cc5ccccc45)cc3CC[C@@H]12 [Example 177, (+)-(4aR)-(10bR)-4-methyl-8-(3-phenyl-1-isoquinolinylthio)-10b-methyl-1,2,3,4,4a,5,6,10b-octahydrobenzo[f]quinolin-3-one]	58	15	–
CN1C(=O)CC[C@]2(C)c3ccc(-c4ccc([N+](=O)[O-])cn4)cc3CC[C@@H]12 [Example 202, (+)-(4aR)-(10bR)-4-methyl-8-(5-nitro-2-pyridinyl)-10b-methyl-1,2,3,4,4a,5,6,10b-octahydrobenzo[f]quinolin-3-one]	41	48	–
CN1C(=O)CC[C@]2(C)c3ccc(-c4ccc(COc5ccccc5)s4)cc3CC[C@@H]12 [Example 126, (+)-(4aR)-(10bR)-4-methyl-8-(2-[5-(phenoxymethyl)thienyl])-10b-methyl-1,2,3,4,4a,5,6,10b-octahydrobenzo[f]quinolin-3-one]	85	43	–
CCN(CC)C(=O)c1c(-c2ccc3c(c2)CC[C@H]2N(C)C(=O)CC[C@]32C)ccc2ccccc12 [Example 35, (+)-(4aR)-(10bR)-4-methyl-8-(2-[1-diethylcarboxamido]naphthyl)-10b-methyl-1,2,3,4,4a,5,6,10b-octahydrobenzo[f]-quinolin-3-one]	17	27	–
C[C@]12CCC(=O)N[C@@H]1CCc1cc(Sc3cccc(F)c3)ccc12 [Example 16, (+)-(4aR)-(10bR)-8-(3-fluorophenylthio)-10b-methyl-1,2,3,4,4a,5,6,10b-octahydrobenzo[f]quinolin-3-one]	14	28	–
CN1C(=O)CC[C@]2(C)c3ccc(-c4cc(F)c(F)cc4F)cc3CC[C@@H]12 [Example 128, (+)-(4aR)-(10bR)-4-methyl-8-(2,4,5-trifluorophenyl)-10b-methyl-1,2,3,4,4a,5,6,10b-octahydrobenzo[f]quinolin-3-one]	82	40	–
CN1C(=O)CC[C@]2(C)c3ccc(C(c4ccccc4)c4ccccc4)cc3CC[C@@H]12 [Example 139, (4aR)-(10bR)-8-diphenylmethyl-4,10b-dimethyl-1,2,3,4,-4a,5,6,10b-octahydrobenzo[f]quinolin-3-one]	30	59	–
